Consider ten molecules from patent US6894034B1, “Sebum production inhibitors” (Maruha Corporation, priority 1999, dated 2005).

This experiment relates to male hamster auricular skin tissue sections containing sebaceous glands. Briefly: Sebum production inhibitory effect on hamster auricular skin tissue sections (radiolabeled acetate incorporation, method of Hall et al.). The format is cell-based. To be noted: cultured 3 hours in Krebs-Ringer phosphate buffer, vs left auricula control. Here is the method:
Compounds of the present invention (Compound Nos. 1-10) were evaluated for sebum production inhibitory effect on hamster auricular skin tissue sections containing sebaceous glands.
The method of Hall et al. (Hall, D. W. R., Van den Hoven, W. E., Noordzij-Kamermans, N. J., Jaitly, K. D., Arch. Dermatol. Res., 275, 1 (1983)) was followed. Namely, male hamster auricular skin tissue sections (3 mm in diameter) containing sebaceous glands were cultured for 3 hours in Krebs-Ringer phosphate buffer containing radioactively labeled sodium acetate, and then tissues were hydrolyzed and extracted with hexane. The radioactively labeled fat levels in hexane were measured in a liquid scintillation counter to determine fat production inhibition levels in sebaceous glands. Skin tissues isolated from the right auricula were cultured in Krebs-Ringer phosphate buffer containing 0.01% or 0.05% of compounds of the present invention (Compound Nos. 1-10) (compound systems), while skin tissues from the left auricula of the same hamster were cultured in Krebs-Ringer phosphate buffer containing no compounds of the present invention (control system). The sebum production inhibition percentage was calculated by the equation below from the test data obtained. Sebum production inhibition (%)=[(Sebum production level in control system)−(Sebum production level in each compound system)]/(Sebum production level in control system)×100

Where [1] appears, read: Concentration of compound in the medium 0.01%.
Where [2] appears, read: Concentration of compound in the medium 0.05%.

Take `CC(=O)N[C@@H]1[C@@H](O[C@@H]2O[C@H](C(=O)O)[C@@H](O[C@@H]3O[C@H](CO)[C@@H](O)[C@H](O[C@@H]4OC(C(=O)O)=C[C@H](O)[C@H]4O)[C@H]3NC(C)=O)[C@H](O)[C@H]2O)[C@H](O)[C@@H](CO)O[C@H]1O` [compound 1, 4-deoxy-α-L-threo-hexa-4-enepyranuronosyl-(1→3)-O-2-acetamide-2-deoxy-β-D-glucopyranosyl-(1→4)-3-O-β-D-glucopyranuronosyl-(1→3)-O-2-acetamide-2-deoxy-β-D-glucopyranose]: the “Sebum production inhibition (%)” value under setting [1] stood at 15.7% and the “Sebum production inhibition (%)” value under setting [2] is listed as 17.8%.
Regarding `CC(=O)N[C@@H]1[C@@H](O[C@@H]2O[C@H](C(=O)O)[C@@H](O[C@@H]3O[C@H](CO)[C@@H](O)[C@H](O[C@@H]4O[C@H](C(=O)O)[C@@H](O[C@@H]5O[C@H](CO)[C@@H](O)[C@H](O[C@@H]6OC(C(=O)O)=C[C@H](O)[C@H]6O)[C@H]5NC(C)=O)[C@H](O)[C@H]4O)[C@H]3NC(C)=O)[C@H](O)[C@H]2O)[C@H](O)[C@@H](CO)O[C@H]1O` [compound 2, 4-deoxy-α-L-threo-hexa-4-enepyranuronosyl-(1→3)-O-2-acetamide-2-deoxy-β-D-glucopyranosyl-(1→4)-3-O-β-D-glucopyranuronosyl-(1→3)-O-2-acetamide-2-deoxy-β-D-glucopyranosyl-(1→4)-3-O-β-D-glucopyranuronosyl-(1→3)-O-2-acetamide-2-deoxy-β-D-glucopyranose], the “Sebum production inhibition (%)” value is reported as 28.6% under setting [1] and 50.1% under setting [2].
In the same order, the values of `CC(=O)N[C@@H]1[C@@H](O[C@@H]2O[C@H](C(=O)O)[C@@H](O[C@@H]3O[C@H](CO)[C@@H](O)[C@H](O[C@@H]4O[C@H](C(=O)O)[C@@H](O[C@@H]5O[C@H](CO)[C@@H](O)[C@H](O[C@@H]6O[C@H](C(=O)O)[C@@H](O[C@@H]7O[C@H](CO)[C@@H](O)[C@H](O[C@@H]8OC(C(=O)O)=C[C@H](O)[C@H]8O)[C@H]7NC(C)=O)[C@H](O)[C@H]6O)[C@H]5NC(C)=O)[C@H](O)[C@H]4O)[C@H]3NC(C)=O)[C@H](O)[C@H]2O)[C@H](O)[C@@H](CO)O[C@H]1O` [compound 3, 4-deoxy-α-L-threo-hexa-4-enepyranuronosyl-(1→3)-O-2-acetamide-2-deoxy-β-D-glucopyranosyl-(1→4)-3-O-β-D-glucopyranuronosyl-(1→3)-O-2-acetamide-2-deoxy-β-D-glucopyranosyl-(1→4)-3-O-β-D-glucopyranuronosyl-(1→3)-O-2-acetamide-2-deoxy-β-D-glucopyranosyl-(1→4)-3-O-β-D-glucopyranuronosyl-(1→3)-O-2-acetamide-2-deoxy-β-D-glucopyranose] are 48.5% and 47.7%.
In the same order, the values of `CC(=O)N[C@@H]1[C@@H](O[C@@H]2O[C@H](C(=O)O)[C@@H](O[C@@H]3O[C@H](CO)[C@@H](O)[C@H](O[C@@H]4O[C@H](C(=O)O)[C@@H](O[C@@H]5O[C@H](CO)[C@@H](O)[C@H](O[C@@H]6O[C@H](C(=O)O)[C@@H](O[C@@H]7O[C@H](CO)[C@@H](O)[C@H](O[C@@H]8O[C@H](C(=O)O)[C@@H](O[C@@H]9O[C@H](CO)[C@@H](O)[C@H](O[C@@H]%10OC(C(=O)O)=C[C@H](O)[C@H]%10O)[C@H]9NC(C)=O)[C@H](O)[C@H]8O)[C@H]7NC(C)=O)[C@H](O)[C@H]6O)[C@H]5NC(C)=O)[C@H](O)[C@H]4O)[C@H]3NC(C)=O)[C@H](O)[C@H]2O)[C@H](O)[C@@H](CO)O[C@H]1O` [compound 4] are 53.4% and 51.0%.
Regarding `CC(=O)N[C@H]1[C@H](O[C@H]2[C@H](O)[C@@H](O)[C@H](O[C@@H]([C@H](O)[C@H](O)CO)[C@H](CO)NC(C)=O)O[C@@H]2C(=O)O)O[C@H](CO)[C@@H](O)[C@@H]1O[C@@H]1OC(C(=O)O)=C[C@H](O)[C@H]1O` [compound 5, 4-deoxy-α-L-threo-hexa-4-enepyranuronosyl-(1→3)-O-2-acetamide-2-deoxy-β-D-glucopyranosyl-(1→4)-3-O-β-D-glucopyranuronosyl-(1→3)-O-2-acetamide-2-deoxy-β-D-glucopyranitol], the “Sebum production inhibition (%)” value reads like this: under setting [1], 16.2%; under setting [2], 18.1%.
In the same order, the values of `CC(=O)N[C@H]1[C@H](O[C@H]2[C@H](O)[C@@H](O)[C@H](O[C@@H]([C@H](O)[C@H](O)CO)[C@H](CO)NC(C)=O)O[C@@H]2C(=O)O)O[C@H](CO)[C@@H](O)[C@@H]1O[C@@H]1O[C@H](C(=O)O)[C@@H](O[C@@H]2O[C@H](CO)[C@@H](O)[C@H](O[C@@H]3OC(C(=O)O)=C[C@H](O)[C@H]3O)[C@H]2NC(C)=O)[C@H](O)[C@H]1O` [compound 6, 4-deoxy-α-L-threo-hexa-4-enepyranuronosyl-(1→3)-O-2-acetamide-2-deoxy-β-D-glucopyranosyl-(1→4)-3-O-β-D-glucopyranuronosyl-(13)-O-2-acetamide-2-deoxy-β-D-glucopyranosyl-(1→4)-3-O-β-D-glucopyranuronosyl-(1→3)-O-2-acetamide-2-deoxy-β-D-glucopyranitol] are 30.8% and 55.7%.
Consider `CC(=O)N[C@H]1[C@H](O[C@H]2[C@H](O)[C@@H](O)[C@H](O)O[C@@H]2C(=O)O)O[C@H](CO)[C@@H](O)[C@@H]1O[C@@H]1OC(C(=O)O)=C[C@H](O)[C@H]1O` [compound 7, 4-deoxy-α-L-threo-hexa-4-enepyranuronosyl-(1-3)-O-2-acetamide-2-deoxy-β-D-glucopyranosyl-(1→4)-3-O-β-D-glucopyranuronic acid], for which the “Sebum production inhibition (%)” value by setting is: under setting [1], 14.2%; under setting [2], 15.9%.
In the same order, the values of `CC(=O)N[C@H]1[C@H](O[C@H]2[C@H](O)[C@@H](O)[C@H](O)O[C@@H]2C(=O)O)O[C@H](CO)[C@@H](O)[C@@H]1O[C@@H]1O[C@H](C(=O)O)[C@@H](O[C@@H]2O[C@H](CO)[C@@H](O)[C@H](O[C@@H]3OC(C(=O)O)=C[C@H](O)[C@H]3O)[C@H]2NC(C)=O)[C@H](O)[C@H]1O` [compound 8, 4-deoxy-α-L-threo-hexa-4-enepyranuronosyl-(1-3)-O-2-acetamide-2-deoxy-β-D-glucopyranosyl-(1-4)-3-O-β-D-glucopyranuronosyl-(13)-O-2-acetamide-2-deoxy-β-D-glucopyranosyl-(1→4)-3-O-β-D-glucopyranuronic acid] are 30.7% and 56.6%.
The like results for `CC(=O)N[C@H]1[C@H](O[C@@H]([C@H](O)[C@@H](O)CO)[C@H](O)C(=O)O)O[C@H](CO)[C@@H](O)[C@@H]1O[C@@H]1OC(C(=O)O)=C[C@H](O)[C@H]1O` [compound 9, 4-deoxy-α-L-threo-hexa-4-enepyranuronosyl-(1→3)-O-2-acetamide-2-deoxy-β-D-glucopyranosyl-(1→4)-3-O-β-D-glucopyranuronitol] were, in that order, 13.9% and 20.0%.
On to `CC(=O)N[C@H]1[C@H](O[C@@H]([C@H](O)[C@@H](O)CO)[C@H](O)C(=O)O)O[C@H](CO)[C@@H](O)[C@@H]1O[C@@H]1O[C@H](C(=O)O)[C@@H](O[C@@H]2O[C@H](CO)[C@@H](O)[C@H](O[C@@H]3OC(C(=O)O)=C[C@H](O)[C@H]3O)[C@H]2NC(C)=O)[C@H](O)[C@H]1O` [compound 10, 4-deoxy-α-L-threo-hexa-4-enepyranuronosyl-(1→3)-O-2-acetamide-2-deoxy-β-D-glucopyranosyl-(1→4)-3-O-β-D-glucopyranuronosyl-(1→3)-O-2-acetamide-2-deoxy-β-D-glucopyranosyl-(1→4)-3-O-β-D-glucopyranuronitol], for which the “Sebum production inhibition (%)” value worked out at 39.8% under setting [1] and 55.1% under setting [2].
